Source: patent publication US20040102622A1, “Modulation of hepatocyte growth factor receptor expression” (Isis Pharmaceuticals Inc., priority 2002, published 2004)
Strand notation (5' to 3'): a small letter for the sugar, then the base; units joined by * are phosphorothioate-linked, units joined directly phosphodiester-linked; [ ] holds rarer units or linkages, { } end groups; capitals alone tell only the bases. e = 2'-O-(2-methoxyethyl) (MOE); [5mC] = 5-methylcytosine; d = 2'-deoxy (DNA)

System: human hepatocyte growth factor receptor mRNA
Assay: Inhibition of human hepatocyte growth factor receptor mRNA levels in T-24 cells, quantitative real-time PCR; also: test concentration or dose not given here
Conditions: averages from three experiments

In order of rising “% INHIB (inhibition of human hepatocyte growth factor receptor mRNA levels)” value:
1. 209538 (antisense eT*eG*eT*eG*eA*d[5mC]*dT*dT*dA*d[5mC]*d[5mC]*d[5mC]*dT*dA*dT*eT*eA*eA*eA*eG) [compound 209538]  28%
2. 155102 (antisense eG*eA*eG*eA*eG*dG*d[5mC]*dA*dT*dT*dG*dA*d[5mC]*dT*dG*e[5mC]*eA*eG*eG*eA) [compound 155102]  35%
3. 209537 (antisense eA*eG*eA*eG*eG*dT*dT*dT*dA*dT*d[5mC]*dT*dG*d[5mC]*d[5mC]*eA*eA*eA*eA*e[5mC]) [compound 209537]  43%
4. 209533 (antisense e[5mC]*eA*e[5mC]*e[5mC]*eA*d[5mC]*dT*dG*dG*d[5mC]*dA*dA*dA*dG*d[5mC]*eA*eA*eA*eA*eT) [compound 209533]  47%
5. 155098 (antisense eT*e[5mC]*eA*eG*eA*dA*dG*dT*dG*dT*d[5mC]*d[5mC]*dT*dA*dT*eT*eA*eA*eA*eG) [compound 155098]  48%
6. 155125 (antisense eG*eG*eA*eA*eA*d[5mC]*dT*dG*dA*dT*d[5mC]*dT*dT*d[5mC]*dT*eG*eG*eA*eA*eA) [compound 155125]  52%
7. 155097 (antisense e[5mC]*e[5mC]*eT*e[5mC]*eG*dG*dT*d[5mC]*dA*dG*dA*dA*dA*dT*dT*eG*eG*eG*eA*eA) [compound 155097]  53%
8. 155122 (antisense eA*eA*eG*e[5mC]*e[5mC]*dT*dA*dT*d[5mC]*d[5mC]*dA*dA*dA*dT*dG*eA*eG*eG*eA*eG) [compound 155122]  69%
9. 155117 (antisense eG*eT*eA*eG*eA*dT*dT*dG*d[5mC]*dA*dG*dG*d[5mC]*dA*dG*eA*e[5mC]*eA*eG*eA) [compound 155117]  75%
10. 209546 (antisense eA*eA*eT*eT*e[5mC]*dA*dA*dG*dT*dT*dT*dT*dG*dG*dA*e[5mC]*eT*e[5mC]*e[5mC]*eA) [compound 209546]  76%
11. 155099 (antisense e[5mC]*eA*eG*eG*eT*dT*dT*dT*dT*d[5mC]*d[5mC]*d[5mC]*dA*dA*d[5mC]*eA*e[5mC]*e[5mC]*eT*eG) [compound 155099]  77%
12. 209527 (antisense e[5mC]*eG*e[5mC]*eT*eT*d[5mC]*dA*d[5mC]*dA*dG*d[5mC]*d[5mC]*dT*dG*dA*eT*eG*eA*eA*eT) [compound 209527]  81%
13. 209530 (antisense eT*eT*eA*e[5mC]*eA*dG*dG*dA*dT*d[5mC]*d[5mC]*dA*d[5mC]*dA*dT*eA*eG*eG*eA*eG) [compound 209530]  81%
14. 155113 (antisense e[5mC]*eT*eA*eA*eT*dG*dA*dG*dT*dT*dG*dA*dT*d[5mC]*dA*eT*e[5mC]*eA*eT*eA) [compound 155113]  83%
15. 209549 (antisense e[5mC]*e[5mC]*eT*eG*eA*dG*d[5mC]*dA*dT*dT*dA*d[5mC]*dT*dA*dT*e[5mC]*eT*e[5mC]*eT*eT) [compound 209549]  84%
16. 155103 (antisense eT*eG*eG*eG*eA*dA*dG*d[5mC]*dT*dG*dA*dT*dA*d[5mC]*dT*eT*e[5mC]*eA*eT*eA) [compound 155103]  86%
17. 155123 (antisense eG*e[5mC]*eA*eA*eA*dG*d[5mC]*dT*dG*dT*dG*dG*dT*dA*dA*eA*e[5mC]*eT*e[5mC]*eT) [compound 155123]  91%
